# According to patent US6887867B2, “5H-2,3-benzodiazepine antagonists of excitatory amino acid receptors” (Transgenomic, Inc., priority 2000, dated 2005):
# Like-named read-outs stand apart in the source and are kept apart here.
# Columns and labels:
# [1] = tested on: focal ischemia; details: rat MCAO, cited from earlier work
# [2] = tested on: global ischemia; details: rat common carotid arteries model; cited from earlier work
# [3] = tested on: MES seizures; experiment: Maximal electro shock (MES) seizure model; format: in vivo; details: rats
# Experimental: The extent of protection by a test compound in a seizure model is tested as described by Rogawski et al. (Epilepsy Research, 15:179-184, 1993). Male NIH Swiss mice (25-30 g) are injected ip with the test drug. The mice are subjected to a 0.2 sec, 60 Hz, 50 mA electrical stimulus delivered with corneal electrodes wetted with 0.9% saline at 15-30 min post dosing. Animals failing to show tonic hind limb extension are scored as protected. Compounds may be selected which are active in this model.
# SYM 2267 was evaluated for in vivo anticonvulsant activity in the maximal electro shock (MES) model in rats.
# [4] = Rotorod test; format: in vivo; details: rats, PO
# [5] = tested on: AMPA receptor; experiment: Inhibition of Ca2+ influx into cortical cells stimulated with AMPA; format: cell-based; details: cortical cells stimulated with 50 μM AMPA; fluorescence readout
# Experimental: Three of the antagonists disclosed herein were tested, in vitro, for inhibition of Ca^2+ influx into cortical cells stimulated with AMPA. They are 1-(4-Aminophenyl)-3,5-dihydro-4-methyl-3-acetyl-7-methoxy-5H-2,3-benzodiazepine (8) (SYM 2267), 1-(4-Aminophenyl)-3,5-dihydro-4-methyl-3-acetyl-8-methoxy-5H-2,3-benzodiazepine (21) (SYM 2268), and 1-(4-Aminophenyl)-3,5-dihydro-4-methyl-3-acetyl-7-amino-8-methoxy-5H-2,3-benzodiazepine (27) (SYM 2269), respectively. The in vitro test measures inhibition of Ca^2+ influx into cortical cells stimulated with 50 µM AMPA by the test compounds. The rationale underlying this assay is that stimulation of the cortical cells with AMPA activates AMPA receptors causing Ca^2+ influx with an increase in intracellular Ca^2+ which is then detected by measuring an increase in fluorescence. The Ca^2+ increase comes mostly from extracellular (influx of Ca^2+ through the channel into the cell), but could also come from intracellular sources (release of Ca^2+ from storage). The inhibition of the AMPA receptor function is detected by a decrease in the level of intracellular Ca^2+ and a decrease in fluorescence.
smiles,measurement,setting,value
CC1=NN=C(c2ccc(N)cc2)c2cc3c(cc2C1)OCO3 [GYKI 52466],Reduction of cortical infarct volume,[1]; dosing delayed for one hour,48%
same,Reduction of cortical infarct volume,[1]; given continuously for 2 hours just after occlusion,68%
same,Efficacy in global ischemia compared with NBQX,[2],as effective as the glutamate site competitive antagonist NBQX
"COc1ccc2c(c1)CC(C)N(C(C)=O)N=C2c1ccc(N)cc1 (stereo not drawn) [SYM 2267, 1-(4-Aminophenyl)-3,5-dihydro-4-methyl-3-acetyl-7-methoxy-5H-2,3-benzodiazepine]",ED50,"[3]; Rattus norvegicus, MES model, read-out: MES effective dosage (ED50)",8.4 mg/kg
same,Protection from MES seizures,"[3]; orally (PO), 30 mg/kg",fully protected
same,Sedative or toxic side effects in the rotorod test,[4],No sedative or toxic side effects were observed
same,IC50,[5],26.1 µM
"COc1ccc2c(c1)C(c1ccc(N)cc1)=NN(C(C)=O)C(C)C2 (stereo not drawn) [SYM 2268, 1-(4-Aminophenyl)-3,5-dihydro-4-methyl-3-acetyl-8-methoxy-5H-2,3-benzodiazepine]",IC50,[5],16.6 µM
"COc1cc2c(cc1N)CC(C)N(C(C)=O)N=C2c1ccc(N)cc1 (stereo not drawn) [SYM 2269, 1-(4-Aminophenyl)-3,5-dihydro-4-methyl-3-acetyl-7-amino-8-methoxy-5H-2,3-benzodiazepine]",IC50,[5],7.3 µM
